Results on 11 molecules are retold here after ChEMBL document CHEMBL1201862, “PubChem BioAssay data set” (2004).

Test systems include 786-0; OVCAR-8; HCT-15; COLO 205; SK-MEL-28; TK-10; NCI-H522; OVCAR-5; KM12; ACHN; UO-31; U-251; SNB-19; UACC-257; CCRF-CEM; OVCAR-4; HT-29; HL-60; SF-539; T47D.
Test in all cases: NCI anticancer screen, dose series, 48 h

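Results reflect a 48-hour exposure of cells in 96-well plates to compound at five concentrations. The concentration for 50% growth inhibition is given as GI50.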 Active and inactive are the calls of the source. Rule as the data show it: active = GI50 up to about 1.1 µM and inactive = higher. Bounds are passed on as bounds.

Take `Cc1cccc(/N=C/c2ccc(N(CCC#N)S(=O)(=O)c3ccccc3)cc2C)c1`: the GI50 with 786-0 is > 100 µM (inactive); in the test on OVCAR-8, 42.9 µM (inactive); with HCT-15, 98.6 µM; in the test with COLO 205 it was > 100 µM (inactive); with SK-MEL-28, > 100 µM (inactive); with TK-10, > 100 µM (inactive). The GI50 in the test with NCI-H522 was > 100 µM (inactive); in the test on OVCAR-5, > 100 µM (inactive); in the test with KM12, > 100 µM (inactive); with ACHN it was 88.3 µM (inactive); with UO-31, 13.3 µM (inactive); in the test on U-251, > 100 µM (inactive). Besides, the GI50 in the test on SNB-19 is > 100 µM (inactive); with UACC-257 it was > 100 µM (inactive); with CCRF-CEM, 19.1 µM (inactive); in the test on OVCAR-4, > 100 µM (inactive); in the test with HT-29, > 100 µM (inactive); in the test with HL-60, 21.9 µM (inactive). For the same molecule, the GI50 in the test on SF-539 was > 100 µM (inactive).
`CC1(C)CNCC(C)(OCc2ccccc2)C(=O)NC(C)(C)CNCC(C)(OCc2ccccc2)C(=O)N1` (stereo not given): the GI50 is > 10 µM (inactive) in the test with 786-0; > 10 µM (inactive) with OVCAR-8; above 10 µM with HCT-15; > 10 µM (inactive) in the test on SK-MEL-28; > 10 µM (inactive) in the test on TK-10; > 10 µM (inactive) with OVCAR-5. The GI50 in the test on KM12 was > 10 µM (inactive); with ACHN, > 10 µM (inactive); in the test with UO-31, 6 µM (inactive); with U-251 it was > 10 µM (inactive); in the test on SNB-19 it was > 10 µM (inactive); in the test with UACC-257 it was > 10 µM (inactive). The GI50 in the test on T47D, in the test with CCRF-CEM and in the test with SF-539 was > 10 µM (inactive) each time.
For the molecule `CC(=O)OC[C@@H]1[C@H]2CC(=O)O[C@H]2C[C@H]1OC(C)=O`, the GI50 is > 100 µM (inactive) in the test on 786-0; > 100 µM (inactive) with OVCAR-8; above 100 µM in the test with HCT-15; 24.7 µM (inactive) with COLO 205; > 100 µM (inactive) in the test on SK-MEL-28; > 100 µM (inactive) with TK-10. For the same molecule, the GI50 in the test on NCI-H522, with OVCAR-5, in the test on KM12, in the test with ACHN, in the test on UO-31 and with U-251 was > 100 µM (inactive) each time. The GI50 in the test on SNB-19, in the test on UACC-257, with CCRF-CEM, with OVCAR-4, in the test on HT-29 and in the test with HL-60 was > 100 µM (inactive) in each case. The GI50 in the test with SF-539 was > 100 µM (inactive).
Turning to `O=C1/C(=C/c2ccc(Cl)cc2)CCCc2ccccc21`, the GI50 in the test on 786-0 is 17.3 µM (inactive); with OVCAR-8 it was 17.2 µM (inactive); with HCT-15 it was 14 µM; in the test with COLO 205, 20.6 µM (inactive); in the test with SK-MEL-28, 16.6 µM (inactive); with TK-10 it was 21.6 µM (inactive). For the same molecule, the GI50 is 11.7 µM (inactive) in the test on NCI-H522; 16.9 µM (inactive) in the test on OVCAR-5; 15.2 µM (inactive) with KM12; 16.9 µM (inactive) with ACHN; 18.3 µM (inactive) in the test on UO-31; 14.2 µM (inactive) in the test with U-251. The GI50 in the test with SNB-19 was 18.4 µM (inactive); in the test with UACC-257, 28.8 µM (inactive); in the test on CCRF-CEM, 12.5 µM (inactive); with OVCAR-4, 14.9 µM (inactive); in the test on HT-29, 4.67 µM (inactive); in the test on HL-60, 13.7 µM (inactive). The GI50 in the test with SF-539 is 17.9 µM (inactive).
As for `O=C1c2ccccc2-c2c1c(-c1ccc(F)cc1)nc1ccc3ccccc3c21`, the GI50 with 786-0 was > 100 µM (inactive); in the test on OVCAR-8 it was > 100 µM (inactive); in the test on HCT-15, above 100 µM; with COLO 205 it was > 100 µM (inactive); in the test with SK-MEL-28, > 100 µM (inactive); with OVCAR-5, > 100 µM (inactive). Further, the GI50 in the test with KM12, with ACHN, with UO-31, in the test on U-251, in the test on SNB-19 and in the test on UACC-257 was > 100 µM (inactive) throughout. The GI50 with T47D, in the test with CCRF-CEM, in the test with OVCAR-4, with HT-29 and with SF-539 was > 100 µM (inactive) in each case.
Regarding `COC(=O)CCSC(=O)Nc1ccccc1Cl`, the GI50 with 786-0 was > 100 µM (inactive); in the test with OVCAR-8, > 100 µM (inactive); with HCT-15 it was above 100 µM; with COLO 205, > 100 µM (inactive); in the test on SK-MEL-28, > 100 µM (inactive); with TK-10, > 100 µM (inactive). Besides, the GI50 with NCI-H522 is 1.36 µM (inactive); with OVCAR-5 it was > 100 µM (inactive); in the test with KM12, > 100 µM (inactive); with ACHN, > 100 µM (inactive); in the test on UO-31 it was > 100 µM (inactive); in the test on U-251, > 100 µM (inactive). Besides, the GI50 in the test on SNB-19 is > 100 µM (inactive); with UACC-257 it was > 100 µM (inactive); with CCRF-CEM it was 58.1 µM (inactive); in the test on OVCAR-4, > 100 µM (inactive); in the test on HT-29, > 100 µM (inactive); in the test with HL-60, 63.1 µM (inactive). Besides, in the test on SF-539, the GI50 was > 100 µM (inactive).
With `COc1ccc2c(c1)c(=O)c1c(NCCN(C)C)ccc3nnn2c31`, the GI50 in the test with 786-0 is 1.71 µM (inactive); with OVCAR-8, 1.04 µM (active); in the test on HCT-15 it was 3.82 µM; in the test with COLO 205 it was 1.36 µM (inactive); in the test with SK-MEL-28 it was 5.78 µM (inactive); in the test on TK-10, 2.5 µM (inactive). The GI50 in the test with NCI-H522 was 2.7 µM (inactive); in the test with OVCAR-5 it was 4.06 µM (inactive); in the test with KM12, 1.11 µM (active); with ACHN, 2.4 µM (inactive); with UO-31 it was 2.17 µM (inactive); in the test with U-251 it was 3.08 µM (inactive). The GI50 in the test with SNB-19 was 3.52 µM (inactive); in the test with UACC-257 it was 4.69 µM (inactive); in the test with CCRF-CEM it was 0.918 µM (active); in the test with OVCAR-4, 1.97 µM (inactive); in the test on HT-29, 1.57 µM (inactive); with HL-60 it was 1.82 µM (inactive). In addition, the GI50 in the test on SF-539 was 4.04 µM (inactive).
With `CN(C)CCNC(=O)c1cccc2cc3ccc4ccccc4c3nc12`, the GI50 was 0.0824 µM (active) with 786-0; 0.0594 µM (active) with OVCAR-8; 0.0684 µM with HCT-15; 0.0414 µM (active) with COLO 205; 0.198 µM (active) in the test on SK-MEL-28; 0.207 µM (active) in the test on TK-10. Also, the GI50 is 0.122 µM (active) with NCI-H522; 0.214 µM (active) in the test on OVCAR-5; 0.148 µM (active) in the test on KM12; 0.0276 µM (active) with ACHN; 0.0481 µM (active) with UO-31; 0.0755 µM (active) in the test on U-251. For the same molecule, the GI50 was 0.0942 µM (active) in the test with SNB-19; 0.177 µM (active) with UACC-257; 0.0406 µM (active) in the test with CCRF-CEM; 0.115 µM (active) with OVCAR-4; 0.0516 µM (active) in the test on HT-29; 0.0336 µM (active) in the test on HL-60. In the test on SF-539, the GI50 is 0.0811 µM (active).
For the molecule `COc1ccc(/N=N/c2c(-c3ccccc3)nn(C(=O)CC(=O)Nc3cccc(Cl)c3)c2-c2ccccc2)cc1`, the GI50 in the test on 786-0 was > 100 µM (inactive); with OVCAR-8 it was > 100 µM (inactive); in the test on HCT-15 it was above 100 µM; in the test on COLO 205, > 100 µM (inactive); in the test with SK-MEL-28 it was > 100 µM (inactive); in the test on TK-10 it was 72.9 µM (inactive). For the same molecule, the GI50 was 43 µM (inactive) with NCI-H522; 61.2 µM (inactive) in the test with OVCAR-5; 10.9 µM (inactive) with KM12; > 100 µM (inactive) with ACHN; 5.11 µM (inactive) in the test with UO-31; > 100 µM (inactive) in the test on U-251. Further, the GI50 with SNB-19 was > 100 µM (inactive); with UACC-257 it was > 100 µM (inactive); in the test with CCRF-CEM, > 100 µM (inactive); in the test on OVCAR-4, 67.9 µM (inactive); in the test on HT-29, > 100 µM (inactive); in the test on HL-60 it was > 100 µM (inactive). Further, the GI50 in the test on SF-539 is 68.9 µM (inactive).
For `COc1cccc(/C=C2\CCCCCC2=O)c1`, the GI50 in the test with 786-0 is > 100 µM (inactive); in the test on HCT-15, above 100 µM; in the test with COLO 205, > 100 µM (inactive); with SK-MEL-28, > 100 µM (inactive); with TK-10 it was > 100 µM (inactive); with NCI-H522, > 100 µM (inactive). For the same molecule, the GI50 in the test on OVCAR-5 is > 100 µM (inactive); in the test with KM12 it was 65.5 µM (inactive); in the test with ACHN it was > 100 µM (inactive); in the test on UO-31, 81.5 µM (inactive); in the test on U-251 it was 65.3 µM (inactive); in the test on SNB-19 it was 19.7 µM (inactive). Also, the GI50 in the test on UACC-257, in the test on T47D, with OVCAR-4 and with HT-29 was > 100 µM (inactive) throughout.
In the case of `C=CCC1(CN(C)C)CC/C(=C\c2ccc(Cl)cc2)C1=O` (stereo not given), the GI50 in the test on 786-0 is 38.1 µM (inactive); in the test on OVCAR-8, 42.3 µM (inactive); in the test with HCT-15, 25.1 µM; with COLO 205, 27.2 µM (inactive); with SK-MEL-28, > 83.2 µM (inactive); in the test on TK-10, > 100 µM (inactive). For the same molecule, the GI50 is 18.9 µM (inactive) with NCI-H522; > 77.4 µM (inactive) with OVCAR-5; 29.5 µM (inactive) in the test with KM12; 44.8 µM (inactive) in the test on ACHN; 41.5 µM (inactive) in the test on UO-31; 38.1 µM (inactive) in the test with U-251. In addition, the GI50 was 77.3 µM (inactive) with SNB-19; 25.5 µM (inactive) with UACC-257; 15.9 µM (inactive) in the test with CCRF-CEM; 31 µM (inactive) with OVCAR-4; 24.1 µM (inactive) in the test with HT-29; 29.9 µM (inactive) in the test with HL-60. Moreover, in the test on SF-539, the GI50 was > 54.1 µM (inactive).
